In the supplement of paper PMC10307832:

Experiments:
Assay in all cases: relative viability (nuclei count vs DMSO), 5 days (fraction); higher = more cells survive
XMD14-99 + Tozasertib = compound: CN1CCN(CC1)C2=CC(=C(C=C2)NC3=NC(=C(S3)C(=O)C4=C(C=CC=C4Cl)Cl)N)OC [XMD14-99] + Cc1cc(Nc2cc(N3CCN(C)CC3)nc(Sc3ccc(NC(=O)C4CC4)cc3)n2)n[nH]1 [Tozasertib] (partner 0.1 µM)
In short: (§1)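 A single step with final 0.05% Triton X-100, 1% formaldehyde and 1 ug/ml Hoechst fixed the cells and stained nuclei 5 days after treatment. Lung cancer cell lines in 1536-well plates had been treated by pin tool the day after seeding with one drug alone or a fixed anchor-drug dose plus five library-drug doses (not always all listed) in √10 steps, and nuclei were counted on 4× images. Relative viability is the ratio of nuclei in treated wells to nuclei in vehicle wells, taken as the median of duplicate plates.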

AZD1208 + Pemetrexed = compound: N[C@@H]1CCCN(c2c(/C=C3\SC(=O)NC3=O)cccc2-c2ccccc2)C1 [AZD1208] + Nc1nc2[nH]cc(CCc3ccc(C(=O)N[C@@H](CCC(=O)O)C(=O)O)cc3)c2c(=O)[nH]1 [Pemetrexed] (partner 0.2 µM)
In short: as §1

AZD1208 + Crizotinib = compound: N[C@@H]1CCCN(c2c(/C=C3\SC(=O)NC3=O)cccc2-c2ccccc2)C1 [AZD1208] + C[C@@H](Oc1cc(-c2cnn(C3CCNCC3)c2)cnc1N)c1c(Cl)ccc(F)c1Cl [Crizotinib] (partner 1 µM)
In short: as §1

AZD1208 + Navitoclax = compound: N[C@@H]1CCCN(c2c(/C=C3\SC(=O)NC3=O)cccc2-c2ccccc2)C1 [AZD1208] + CC1(C)CCC(c2ccc(Cl)cc2)=C(CN2CCN(c3ccc(C(=O)NS(=O)(=O)c4ccc(N[C@H](CCN5CCOCC5)CSc5ccccc5)c(S(=O)(=O)C(F)(F)F)c4)cc3)CC2)C1 [Navitoclax] (partner 0.5 µM)
In short: as §1

Cell Line	relative viability (XMD14-99 + Tozasertib; first compound 0.08 µM)	relative viability (XMD14-99 + Tozasertib; first compound 0.8 µM)	relative viability (XMD14-99 + Tozasertib; first compound 2.53 µM)	relative viability (XMD14-99 + Tozasertib; first compound 8 µM)	relative viability (AZD1208 + Pemetrexed; first compound 0.08 µM)	relative viability (AZD1208 + Pemetrexed; first compound 0.253 µM)	relative viability (AZD1208 + Pemetrexed; first compound 0.8 µM)	relative viability (AZD1208 + Pemetrexed; first compound 2.53 µM)	relative viability (AZD1208 + Pemetrexed; first compound 8 µM)	relative viability (AZD1208 + Crizotinib; first compound 0.253 µM)	relative viability (AZD1208 + Crizotinib; first compound 0.8 µM)	relative viability (AZD1208 + Crizotinib; first compound 2.53 µM)	relative viability (AZD1208 + Crizotinib; first compound 8 µM)	relative viability (AZD1208 + Navitoclax; first compound 0.253 µM)	relative viability (AZD1208 + Navitoclax; first compound 0.8 µM)	relative viability (AZD1208 + Navitoclax; first compound 2.53 µM)	relative viability (AZD1208 + Navitoclax; first compound 8 µM)	relative viability (AZD1208 + Crizotinib; first compound 0.08 µM)	relative viability (AZD1208 + Navitoclax; first compound 0.08 µM)
NCI-H1993	0.602	0.68	0.549	0.571	0.481	0.527	0.526	0.568	0.413	0.678	0.759	0.735	0.728	0.824	0.606	0.812	0.691	–	–
LU99A	0.294	0.236	0.212	0.196	0.198	0.237	0.233	0.198	0.205	0.541	0.519	0.488	0.446	0.855	0.864	0.712	0.514	0.517	0.805
NCI-H1355	0.54	0.519	0.408	0.324	1.1	0.944	0.934	1.04	1.04	1.09	0.997	1.06	0.916	0.861	0.785	0.932	0.853	0.974	0.963
HCC-78	0.407	0.335	0.398	0.347	0.91	0.908	0.897	0.87	0.912	0.366	0.333	0.356	0.323	0.752	0.672	0.685	0.709	0.338	0.951
NCI-H1563	–	–	–	–	0.762	0.764	0.734	0.705	0.768	0.81	0.928	0.924	0.8	–	–	–	–	0.877	–
HCC-15	0.421	0.31	0.322	0.199	0.215	0.214	0.225	0.237	0.213	0.788	0.707	0.752	0.641	0.725	0.55	0.642	0.612	0.849	0.632
EKVX	0.368	0.378	0.392	0.343	0.411	0.441	0.404	0.425	0.404	1.29	0.86	1.01	0.88	0.995	0.754	0.933	0.944	0.887	0.931
NCI-H2126	0.811	0.806	0.791	0.693	0.649	0.734	0.652	0.634	0.614	1.04	0.991	1.01	0.974	0.753	0.812	0.788	0.731	0.993	0.902
LK-2	0.171	0.185	0.171	0.192	0.344	0.25	–	0.219	0.163	0.211	0.212	0.275	0.252	0.523	0.494	0.433	0.347	0.28	0.77
